# Experiments:
# [1] = Solubility of natural ceramide and ceramide-like compounds in cosmetic solvents; assay type: physicochemical; details: 20° C.; dissolved at 80° C. then cooled to 20° C.
# Method: The solubility of a natural ceramide and of ceramide-like compounds:
# Ceramide Type 3 represented by the following formula (III) has been mainly used in cosmetics. Accordingly, in this experiment were compared solubility of the ceramide Type 3 (obtained from bovine brain) and the ceramide-like compounds of Examples 1 to 3 in various solvents such as ethanol, which have been widely used in cosmetics. Samples were dissolved in the solvents of 80° C. then cooled to 20° C.
# [2] = Anti-oxidative activity using linoleic acid; details: ammoniumthiocyanate, after 3 minutes, lower absorbance means higher anti-oxidative activity
# Method: Anti-oxidative activity using linoleic acid
# Linoleic acid is easily oxidized to be peroxide due to double bond contained therein. Therefore, this experiment utilized the above property.
# The control solution employed in this experiment was prepared by adding 2.88 ml of 2.5% linoeic acid in ethanol and 9 ml of 40 mmol phosphate buffer(pH 7.0) to 200 ml of ethanol. This control solution was maintained in the dark of 40° C. And, sample solutions were prepared by adding 9.7 ml of 75% ethanol, 0.1 ml of 30% ammoniumthiocyanate and 0.1 ml of each sample, to 0.1 ml of the control solution. After 3 minutes, the absorbance was measured at 500 nm by using a UV spectrophotometer. Lower absorbance value means higher anti-oxidative activity.
# [3] = Anti-oxidative activity using DPPH; details: 37° C. for 30 minutes; UV spectrophotometer
# Method: Anti-oxidative activity using DPPH
# Diphenylpicrylhydrazyl(DPPH) has been known as a radical reaction inhibitor which is stabilized by the radical reaction. Also, it has a chromophoric property with compounds having anti-oxidative activity. Therefore, this experiment utilized the above property.
# About 50 ml of DPPH was introduced into the test tube. And samples were added dropwise thereto. After addition, the test tube was maintained in constant temperature bath of 37° C. for 30 minutes. The extent of color development was measured by UV spectrophotometer.
compound,measurement,setting,value
"CCCCCCCCCCCCCCCCCCCCCCCC(=O)NC(CO)C(O)C(O)CCCCCCCCCCCCCC (stereo not drawn) [Natural Ceramide (type 3), reference compound]",Solubility in Cetyl octanoate,[1],<1% wt/wt %
same,Solubility in Ethanol,[1],<1% wt/wt %
same,Solubility in Isopropyl palmitate,[1],<1% wt/wt %
same,Solubility in Octyl Palmitate,[1],<1% wt/wt %
same,Solubility in Octyl dodecanol,[1],<1% wt/wt %
"Cc1c(OC(=O)CCC(=O)N(CCO)CC(O)CN(CCO)C(=O)CCC(=O)Oc2cc3c(c(C)c2C)OC(C)(CCCC(C)CCCC(C)CCCC(C)C)CC3)cc2c(c1C)OC(C)(CCCC(C)CCCC(C)CCCC(C)C)CC2 (stereo not drawn) [Example 3, 1,3-bis(N-(2-hydroxyethyl)-γ-tocopherylsuccinoylamino)-2-hydroxypropane]",Solubility in Cetyl octanoate,[1],>5% wt/wt %
same,Solubility in Ethanol,[1],>5% wt/wt %
same,Solubility in Isopropyl palmitate,[1],>5% wt/wt %
same,Solubility in Octyl Palmitate,[1],>5% wt/wt %
same,Solubility in Octyl dodecanol,[1],>5% wt/wt %
same,Absorbance at 500 nm (Experiment Example 5-2),[2],0.30
same,Color development with DPPH (Experiment Example 5-1),[3],Brown
Vitamin E [reference compound],Absorbance at 500 nm (Experiment Example 5-2),[2],0.23
same,Color development with DPPH (Experiment Example 5-1),[3],No color change
"CC(=O)Oc1c(C)c(C)c2c(c1C)CCC(C)(CCC[C@H](C)CCC[C@H](C)CCCC(C)C)O2 (stereo partly drawn) [Vitamin E acetate, reference compound]",Absorbance at 500 nm (Experiment Example 5-2),[2],0.44
same,Color development with DPPH (Experiment Example 5-1),[3],No color change
"Cc1cc(OC(=O)CCC(=O)N(CCO)CC(O)CN(CCO)C(=O)CCC(=O)Oc2cc(C)c3c(c2)CCC(C)(CCCC(C)CCCC(C)CCCC(C)C)O3)cc2c1OC(C)(CCCC(C)CCCC(C)CCCC(C)C)CC2 (stereo not drawn) [Example 2, 1,3-bis(N-(2-hydroxyethyl)-δ-tocopherylsuccinoylamino) -2-hydroxypropane]",Solubility in Cetyl octanoate,[1],>5% wt/wt %
same,Solubility in Ethanol,[1],>5% wt/wt %
same,Solubility in Isopropyl palmitate,[1],>5% wt/wt %
same,Solubility in Octyl Palmitate,[1],>5% wt/wt %
same,Solubility in Octyl dodecanol,[1],>5% wt/wt %
same,Absorbance at 500 nm (Experiment Example 5-2),[2],0.29
same,Color development with DPPH (Experiment Example 5-1),[3],Brown
"Cc1c(C)c2c(c(C)c1OC(=O)CCC(=O)N(CCO)CC(O)CN(CCO)C(=O)CCC(=O)Oc1c(C)c(C)c3c(c1C)CCC(C)(CCCC(C)CCCC(C)CCCC(C)C)O3)CCC(C)(CCCC(C)CCCC(C)CCCC(C)C)O2 (stereo not drawn) [Example 1, 1,3-bis(N-(2-hydroxyethyl)-α-tocopherylsuccinoylamino) -2-hydroxypropane]",Solubility in Cetyl octanoate,[1],>5% wt/wt %
same,Solubility in Ethanol,[1],>5% wt/wt %
same,Solubility in Isopropyl palmitate,[1],>5% wt/wt %
same,Solubility in Octyl Palmitate,[1],>5% wt/wt %
same,Solubility in Octyl dodecanol,[1],>5% wt/wt %
same,Absorbance at 500 nm (Experiment Example 5-2),[2],0.23
same,Color development with DPPH (Experiment Example 5-1),[3],Brown

# Source: patent publication US6521662B2, “Ceramide-like compounds having antioxidant property and a method for preparation thereof, and a cosmetic composition containing the same” (Pacific Corporation, priority 2000, dated 2003)
